By IC50 is commonly meant the concentration that inhibits the measured activity by half.

*1 amine or outer side, *2 acyl side, *3 side chain or, on linkers, in order; H or OH if unused. Where a SMILES comes first, the peptide text is derived from it. Bridges are numbered along the chain shown (N, C = ends). [ ]: non-standard residue; d: D form. NMehTyr = CN[C@@H](CCc1ccc(O)cc1)C(=O)O; hTyr = N[C@@H](CCc1ccc(O)cc1)C(=O)O; NMeA = CN[C@@H](C)C(=O)O; CO = O=C([*:1])[*:2]

Data on eight molecules can be found in publication PMC4728505 (Marine Drugs, 2015).

In experiment [1] the target is T1, carboxypeptidase A (Bos taurus, UniProt P00730).
T1 construct: purchased Sigma-Aldrich C9268
T1 sequence (P00730 111-419): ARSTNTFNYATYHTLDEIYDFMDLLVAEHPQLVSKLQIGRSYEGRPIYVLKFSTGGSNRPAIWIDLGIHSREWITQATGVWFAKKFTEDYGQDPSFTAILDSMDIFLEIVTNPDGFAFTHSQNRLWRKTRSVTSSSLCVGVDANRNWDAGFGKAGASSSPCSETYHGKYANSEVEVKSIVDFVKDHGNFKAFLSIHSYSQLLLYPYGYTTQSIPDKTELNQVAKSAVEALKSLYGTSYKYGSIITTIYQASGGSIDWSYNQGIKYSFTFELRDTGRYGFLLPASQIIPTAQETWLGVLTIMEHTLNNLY
Details: method as in PMID 11000037. The settings on record: read-out: CPA IC50 (converted); cited from earlier work.

For experiment [2], the system named is PP1 (from rabbit skeletal muscle). The note with it: cited from earlier work; for PP1 inhibition reported (in words): PP1 from rabbit skeletal muscle.
Another experiment deals with T2, protein phosphatase 1 (Oryctolagus cuniculus, UniProt P62139).
T2 construct: purchased New England Biolabs
The experiment is described as follows: biochemical. Type of experiment: biochemical. The note with it: for PP1 inhibition (in words): acquired standards.

Experiment [3] deals with T1, carboxypeptidase A. The experiment is described as follows: Carboxypeptidase A inhibition assay. Type of experiment: biochemical. The note with it: acquired standards. An excerpt:
The following reagents used for enzymatic assays were purchased from Sigma-Aldrich: trypsin (product number T0303), thrombin bovine plasma (T4648), elastase (E0258), carboxypeptidase A (C9268), aprotinine (A6103), N-p-tosyl-Gly-Pro-Lys-p-nitroanilide acetate salt (T6140), N-Succinyl-Gly-Gly-Phe-p-nitroanilide (S1899), 4-(2-Aminoethyl) benzenesulfonyl fluoride hydrochloride—AEBSF (A8456), elastatinal (E0881), N-Succinyl-Ala-Ala-Ala-p-nitroanilide (S4760), carboxypeptidase inhibitor—CPI (C0297), p-nitrophenyl phosphate disodium salt hexahydrate—p-NPP (71768), albumin bovine—BSA (A4503) and DL-dithiothreitol DTT (D0632).
APs were assayed for bioactivity by protein phosphatase 1, carboxypeptidase A, trypsin, elastase and thrombin inhibition assays as described in Mazur-Marzec et al. 2015 [50].

T2 sequence (P62139 whole entry): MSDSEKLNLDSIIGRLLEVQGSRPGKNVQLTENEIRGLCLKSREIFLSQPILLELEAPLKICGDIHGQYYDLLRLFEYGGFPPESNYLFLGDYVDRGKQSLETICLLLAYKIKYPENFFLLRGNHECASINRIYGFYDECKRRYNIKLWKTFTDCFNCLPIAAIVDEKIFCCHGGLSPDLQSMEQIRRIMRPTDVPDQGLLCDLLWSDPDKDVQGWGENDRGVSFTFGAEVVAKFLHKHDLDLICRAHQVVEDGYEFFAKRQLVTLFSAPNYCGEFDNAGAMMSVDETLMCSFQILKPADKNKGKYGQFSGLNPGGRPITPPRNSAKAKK

With `CC[C@H](C)[C@@H]1NC(=O)[C@H](NC(=O)N[C@@H](CCCNC(=N)N)C(=O)O)CCCCNC(=O)[C@H]([C@@H](C)CC)NC(=O)[C@H](CCc2ccc(O)cc2)N(C)C(=O)[C@H](CCc2ccc(O)cc2)NC1=O` [anabaenopeptin H] ({Arg-CO}-[dK]I[hTyr][NMehTyr]I; lactam 1-C), on carboxypeptidase A [1], the IC50 was 3.68 µM.

Turning to `CC[C@H](C)[C@@H]1NC(=O)[C@H](NC(=O)N[C@@H](CCCNC(=N)N)C(=O)O)CCCCNC(=O)[C@H](Cc2ccccc2)NC(=O)[C@H](CCc2ccc(O)cc2)N(C)C(=O)[C@H](CCc2ccc(O)cc2)NC1=O` [Osc C] ({Arg-CO}-[dK]I[hTyr][NMehTyr]F; lactam 1-C), in experiment [2], the “PP1 inhibition reported (in words)” value was “inhibition” and the IC50 is 0.9 µM.

For the molecule `CSCC[C@@H]1NC(=O)[C@H](NC(=O)N[C@@H](CCCNC(=N)N)C(=O)O)CCCCNC(=O)[C@H](Cc2ccccc2)NC(=O)[C@H](C)N(C)C(=O)[C@H](CCc2ccc(O)cc2)NC1=O` [oscillamide B] ({Arg-CO}-[dK]M[hTyr][NMeA]F; lactam 1-C), in experiment [2], the “PP1 inhibition reported (in words)” value is “inhibition”.

With `CC[C@H](C)[C@@H]1NC(=O)[C@H](NC(=O)N[C@@H](Cc2ccc(O)cc2)C(=O)O)CCCCNC(=O)[C@H](Cc2ccccc2)NC(=O)[C@H](C)N(C)C(=O)[C@H](CCc2ccc(O)cc2)NC1=O` [Oscillamide Y, Tyr + CO[Lys + Ile + Hty + MeAla + Phe]] ({Tyr-CO}-[dK]I[hTyr][NMeA]F; lactam 1-C), on protein phosphatase 1, the IC50 is 0.0723 µM and the “PP1 inhibition (in words)” value was “showed inhibition”. In addition, the “Activity against CPA (in words)” value at carboxypeptidase A [3] was “active”. Further, in experiment [2] (at 100 μg/mL), the “PP1 inhibition (in words)” value was “no effect”.

With `CC(C)[C@@H]1NC(=O)[C@H](NC(=O)N[C@@H](CCCNC(=N)N)C(=O)O)CCCCNC(=O)[C@H](Cc2ccccc2)NC(=O)[C@H](C)N(C)C(=O)[C@H](CCc2ccc(O)cc2)NC1=O` [Anabaenopeptin B] ({Arg-CO}-[dK]V[hTyr][NMeA]F; lactam 1-C), at protein phosphatase 1, the “PP1 inhibition (in words)” value is “showed inhibition”. Also, the “PP1 inhibition reported (in words)” value in experiment [2] is on record as “inhibition”.

Turning to `CC[C@H](C)[C@H](NC(=O)N[C@@H]1CCCCNC(=O)[C@H](Cc2ccccc2)NC(=O)[C@H](C)N(C)C(=O)[C@H](CCc2ccc(O)cc2)NC(=O)[C@H](C(C)C)NC1=O)C(=O)O` [Anabaenopeptin J] ({Ile-CO}-[dK]V[hTyr][NMeA]F; lactam 1-C), on protein phosphatase 1, the “PP1 inhibition (in words)” value is given as “showed inhibition”. Besides, the “Activity against CPA (in words)” value on carboxypeptidase A [3] was “active”.

Take `CC(C)C1NC(=O)C(NC(=O)NC(Cc2ccc(O)cc2)C(=O)O)CCCCNC(=O)C(Cc2ccccc2)NC(=O)C(C)N(C)C(=O)C(CCc2ccc(O)cc2)NC1=O` (stereo not drawn) [Anabaenopeptin A, Tyr + CO[Lys + Val + Hty + MeAla + Phe]]: the “PP1 inhibition (in words)” value at protein phosphatase 1 is “showed inhibition”. For the same molecule, the “PP1 inhibition reported (in words)” value in experiment [2] is “inhibition”.

`CC[C@H](C)[C@@H]1NC(=O)[C@H](NC(=O)N[C@@H](CCCNC(=N)N)C(=O)O)CCCCNC(=O)[C@H](Cc2ccccc2)NC(=O)[C@H](C)N(C)C(=O)[C@H](CCc2ccc(O)cc2)NC1=O` [anabaenopeptin F] ({Arg-CO}-[dK]I[hTyr][NMeA]F; lactam 1-C): in experiment [2], the “PP1 inhibition reported (in words)” value is given as “inhibition”.
